Here are results for one compound from BindingDB's records for doi:10.1016/s0006-2952(02)01515-0 (Aventis Pharma, 2003).

The term Ki denotes the equilibrium dissociation constant of an inhibitor or competing ligand from its target.

Molecules are shown by their SMILES. A value given as a limit tells only on which side of the number the result lay.

The target in assay [1] is 5-hydroxytryptamine receptor 2C (Homo sapiens, UniProt P28335).
The target in assay [2] is Muscarinic acetylcholine receptor M5 (Homo sapiens, UniProt P08912).
Chain of Muscarinic acetylcholine receptor M5 (P08912 whole entry): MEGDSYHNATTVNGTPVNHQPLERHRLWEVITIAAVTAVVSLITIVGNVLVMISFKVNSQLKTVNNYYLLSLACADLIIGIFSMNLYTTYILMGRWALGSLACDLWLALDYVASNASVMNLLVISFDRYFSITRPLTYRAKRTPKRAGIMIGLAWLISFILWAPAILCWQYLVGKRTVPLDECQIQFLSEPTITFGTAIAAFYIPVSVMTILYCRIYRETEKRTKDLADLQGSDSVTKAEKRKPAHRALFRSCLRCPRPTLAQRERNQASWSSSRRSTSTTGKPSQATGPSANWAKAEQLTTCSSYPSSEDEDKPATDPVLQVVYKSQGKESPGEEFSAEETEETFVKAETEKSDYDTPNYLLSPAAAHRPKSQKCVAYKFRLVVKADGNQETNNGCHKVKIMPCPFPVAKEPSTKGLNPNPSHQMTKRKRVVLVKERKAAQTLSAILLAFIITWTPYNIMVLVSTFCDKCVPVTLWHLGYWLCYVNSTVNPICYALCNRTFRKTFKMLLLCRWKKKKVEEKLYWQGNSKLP
Assay [3] concerns the target D(1A) dopamine receptor (Homo sapiens, UniProt P21728).
Assay [4] deals with 5-hydroxytryptamine receptor 2A (Homo sapiens, UniProt P28223).
For assay [5], the target named is D(4) dopamine receptor (Homo sapiens, UniProt P21917).
Chain of D(4) dopamine receptor (P21917 whole entry): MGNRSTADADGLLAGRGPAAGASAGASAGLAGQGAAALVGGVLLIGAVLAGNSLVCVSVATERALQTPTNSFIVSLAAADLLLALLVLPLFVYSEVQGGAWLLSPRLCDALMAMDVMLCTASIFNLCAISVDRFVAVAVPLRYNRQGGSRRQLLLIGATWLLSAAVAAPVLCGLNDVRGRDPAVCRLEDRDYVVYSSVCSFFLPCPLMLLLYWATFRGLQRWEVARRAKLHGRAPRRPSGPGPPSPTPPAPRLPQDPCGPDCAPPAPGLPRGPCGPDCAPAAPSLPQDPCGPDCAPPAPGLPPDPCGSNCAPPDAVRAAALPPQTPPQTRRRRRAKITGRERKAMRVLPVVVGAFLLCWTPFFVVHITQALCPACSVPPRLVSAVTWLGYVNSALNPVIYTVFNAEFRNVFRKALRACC
For assay [6], the target named is Muscarinic acetylcholine receptor M1 (Homo sapiens, UniProt P11229).
For assay [7], the target named is Histamine H2 receptor (Cavia porcellus, UniProt P47747).
Chain of Histamine H2 receptor (P47747 whole entry): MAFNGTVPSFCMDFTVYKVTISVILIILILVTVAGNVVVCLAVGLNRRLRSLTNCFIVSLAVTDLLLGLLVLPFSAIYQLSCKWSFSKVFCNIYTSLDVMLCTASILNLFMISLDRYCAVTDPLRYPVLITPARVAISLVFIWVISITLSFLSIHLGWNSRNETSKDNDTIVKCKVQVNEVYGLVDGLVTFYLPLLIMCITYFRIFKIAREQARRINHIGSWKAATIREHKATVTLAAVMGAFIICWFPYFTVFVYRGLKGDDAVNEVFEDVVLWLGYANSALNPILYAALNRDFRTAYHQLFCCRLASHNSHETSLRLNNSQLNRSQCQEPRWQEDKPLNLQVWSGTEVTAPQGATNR
Assay [8] deals with Gamma-aminobutyric acid (GABA) B receptor 1 (Rattus norvegicus, UniProt Q6MFX8).
The target in assay [9] is Muscarinic acetylcholine receptor M4 (Homo sapiens, UniProt P08173).
Chain of Muscarinic acetylcholine receptor M4 (P08173 whole entry): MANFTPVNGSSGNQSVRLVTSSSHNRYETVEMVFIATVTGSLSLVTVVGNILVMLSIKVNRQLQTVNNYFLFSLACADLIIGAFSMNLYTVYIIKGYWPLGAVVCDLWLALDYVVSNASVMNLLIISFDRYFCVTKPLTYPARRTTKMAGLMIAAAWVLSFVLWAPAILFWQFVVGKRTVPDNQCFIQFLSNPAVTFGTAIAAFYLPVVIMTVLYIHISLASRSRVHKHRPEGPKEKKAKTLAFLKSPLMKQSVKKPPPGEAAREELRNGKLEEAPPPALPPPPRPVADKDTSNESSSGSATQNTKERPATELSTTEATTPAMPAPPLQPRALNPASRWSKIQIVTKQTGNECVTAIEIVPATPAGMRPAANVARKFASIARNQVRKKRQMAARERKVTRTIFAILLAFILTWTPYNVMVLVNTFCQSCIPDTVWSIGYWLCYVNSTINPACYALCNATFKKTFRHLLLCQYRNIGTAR
In assay [10] the target is Hrh3 protein (Rattus norvegicus, UniProt Q5PPG3).
Chain of Hrh3 protein (Q5PPG3 whole entry): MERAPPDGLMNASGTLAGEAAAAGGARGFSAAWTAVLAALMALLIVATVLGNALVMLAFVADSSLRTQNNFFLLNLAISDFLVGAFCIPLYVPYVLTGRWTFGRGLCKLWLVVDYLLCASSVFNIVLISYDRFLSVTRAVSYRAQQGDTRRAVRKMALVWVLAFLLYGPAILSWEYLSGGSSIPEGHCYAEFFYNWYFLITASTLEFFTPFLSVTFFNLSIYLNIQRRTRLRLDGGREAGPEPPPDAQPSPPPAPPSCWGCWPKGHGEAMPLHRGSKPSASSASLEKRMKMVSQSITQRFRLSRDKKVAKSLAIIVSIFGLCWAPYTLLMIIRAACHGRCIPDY
For assay [11], the target named is Alpha-1A adrenergic receptor (Rattus norvegicus, UniProt P43140).
Chain of Alpha-1A adrenergic receptor (P43140 whole entry): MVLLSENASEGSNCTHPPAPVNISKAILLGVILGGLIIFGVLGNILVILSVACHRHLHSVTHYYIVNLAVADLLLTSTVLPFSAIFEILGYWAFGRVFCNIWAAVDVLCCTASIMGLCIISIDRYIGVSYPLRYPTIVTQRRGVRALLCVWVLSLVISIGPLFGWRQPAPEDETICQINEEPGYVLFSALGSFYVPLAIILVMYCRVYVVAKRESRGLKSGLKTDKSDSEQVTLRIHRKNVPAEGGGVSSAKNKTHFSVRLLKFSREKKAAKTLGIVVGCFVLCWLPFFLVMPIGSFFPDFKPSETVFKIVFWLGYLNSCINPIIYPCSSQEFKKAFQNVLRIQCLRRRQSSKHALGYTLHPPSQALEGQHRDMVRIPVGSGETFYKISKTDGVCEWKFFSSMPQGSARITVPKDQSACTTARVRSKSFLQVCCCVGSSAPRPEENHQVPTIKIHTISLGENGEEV
Assay [12] concerns the target Gamma-aminobutyric acid receptor subunit alpha-1 (Rattus norvegicus, UniProt P62813).
Assay [13] concerns the target 5-hydroxytryptamine receptor 3A (Homo sapiens, UniProt P46098).
The target in assay [14] is Muscarinic acetylcholine receptor M3 (Homo sapiens, UniProt P20309).
Assay [15] deals with 5-hydroxytryptamine receptor 7 (Homo sapiens, UniProt P34969).
Assay [16] deals with 5-hydroxytryptamine receptor 3A (Mus musculus, UniProt P23979).
Chain of 5-hydroxytryptamine receptor 3A (Mus musculus, UniProt P23979) (P23979 as listed by the source): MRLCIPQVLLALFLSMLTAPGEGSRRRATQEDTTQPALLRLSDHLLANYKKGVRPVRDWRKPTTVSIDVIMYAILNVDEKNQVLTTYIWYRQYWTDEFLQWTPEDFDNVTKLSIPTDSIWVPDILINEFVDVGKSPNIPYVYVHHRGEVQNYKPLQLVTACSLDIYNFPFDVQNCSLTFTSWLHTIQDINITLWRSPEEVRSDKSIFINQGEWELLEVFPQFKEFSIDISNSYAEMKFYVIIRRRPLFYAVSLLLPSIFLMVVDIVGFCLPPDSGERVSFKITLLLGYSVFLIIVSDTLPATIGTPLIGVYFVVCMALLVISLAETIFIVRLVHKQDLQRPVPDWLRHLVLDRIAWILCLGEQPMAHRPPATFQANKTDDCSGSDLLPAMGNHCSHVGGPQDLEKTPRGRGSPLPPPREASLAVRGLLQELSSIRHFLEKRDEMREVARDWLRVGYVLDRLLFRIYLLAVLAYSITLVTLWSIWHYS
Assay [17] concerns the target Muscarinic acetylcholine receptor M2 (Homo sapiens, UniProt P08172).
In assay [18] the target is D(2) dopamine receptor (Homo sapiens, UniProt P14416).
Assay [19] has as its target Histamine H1 receptor (Cavia porcellus, UniProt P31389).
Assay [20] deals with Alpha-2C adrenergic receptor (Rattus norvegicus, UniProt P22086).
Assay [21] deals with D(3) dopamine receptor (Homo sapiens, UniProt P35462).
Chain of D(3) dopamine receptor (P35462 as listed by the source): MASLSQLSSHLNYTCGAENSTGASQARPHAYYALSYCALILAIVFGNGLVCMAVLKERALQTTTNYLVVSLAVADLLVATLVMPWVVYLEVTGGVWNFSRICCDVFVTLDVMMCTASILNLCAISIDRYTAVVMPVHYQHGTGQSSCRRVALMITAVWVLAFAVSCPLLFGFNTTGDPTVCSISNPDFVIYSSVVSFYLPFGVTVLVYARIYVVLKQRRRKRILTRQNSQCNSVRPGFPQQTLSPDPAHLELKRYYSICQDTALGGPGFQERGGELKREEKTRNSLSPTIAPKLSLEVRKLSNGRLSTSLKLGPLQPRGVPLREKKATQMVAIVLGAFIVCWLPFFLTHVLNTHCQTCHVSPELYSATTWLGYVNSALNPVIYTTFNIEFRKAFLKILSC

Chain of Gamma-aminobutyric acid receptor subunit alpha-1 (P62813 whole entry): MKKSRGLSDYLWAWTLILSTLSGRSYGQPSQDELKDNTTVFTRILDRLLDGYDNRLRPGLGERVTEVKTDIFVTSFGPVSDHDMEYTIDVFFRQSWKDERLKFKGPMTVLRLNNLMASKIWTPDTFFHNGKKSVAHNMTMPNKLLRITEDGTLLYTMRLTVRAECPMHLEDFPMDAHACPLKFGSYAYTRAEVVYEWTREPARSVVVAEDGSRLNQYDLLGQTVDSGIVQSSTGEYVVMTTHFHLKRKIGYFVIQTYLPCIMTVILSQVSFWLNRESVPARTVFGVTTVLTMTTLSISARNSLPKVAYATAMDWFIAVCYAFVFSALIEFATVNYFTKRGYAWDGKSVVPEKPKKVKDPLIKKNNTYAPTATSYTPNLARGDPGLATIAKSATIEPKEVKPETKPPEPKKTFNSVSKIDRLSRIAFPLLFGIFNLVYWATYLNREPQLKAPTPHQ
Chain of 5-hydroxytryptamine receptor 2C (P28335 whole entry): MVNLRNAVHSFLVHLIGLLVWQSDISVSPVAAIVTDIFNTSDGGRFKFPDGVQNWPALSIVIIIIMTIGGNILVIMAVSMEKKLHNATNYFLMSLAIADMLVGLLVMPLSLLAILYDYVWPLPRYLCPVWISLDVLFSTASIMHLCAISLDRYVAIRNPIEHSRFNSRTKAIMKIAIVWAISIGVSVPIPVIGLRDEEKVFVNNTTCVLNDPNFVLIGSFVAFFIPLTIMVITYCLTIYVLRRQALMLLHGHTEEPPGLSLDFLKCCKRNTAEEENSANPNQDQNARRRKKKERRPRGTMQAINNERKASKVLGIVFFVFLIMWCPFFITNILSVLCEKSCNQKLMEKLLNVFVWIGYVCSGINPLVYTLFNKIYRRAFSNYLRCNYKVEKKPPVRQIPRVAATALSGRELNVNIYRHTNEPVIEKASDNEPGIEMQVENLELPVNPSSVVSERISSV
Chain of Histamine H1 receptor (P31389 whole entry): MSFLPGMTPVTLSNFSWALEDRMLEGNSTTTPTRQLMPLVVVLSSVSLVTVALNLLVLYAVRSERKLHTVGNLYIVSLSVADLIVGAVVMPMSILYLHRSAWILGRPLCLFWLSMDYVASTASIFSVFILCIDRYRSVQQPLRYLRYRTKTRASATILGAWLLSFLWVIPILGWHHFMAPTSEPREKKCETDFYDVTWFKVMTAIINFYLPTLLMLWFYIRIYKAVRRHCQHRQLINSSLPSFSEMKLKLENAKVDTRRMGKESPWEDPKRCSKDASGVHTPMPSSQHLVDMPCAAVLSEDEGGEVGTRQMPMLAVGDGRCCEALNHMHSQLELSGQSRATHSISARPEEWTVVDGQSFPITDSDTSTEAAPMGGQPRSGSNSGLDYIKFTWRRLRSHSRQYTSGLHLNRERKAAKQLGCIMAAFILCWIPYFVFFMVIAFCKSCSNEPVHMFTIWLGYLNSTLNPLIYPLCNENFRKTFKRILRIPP

For the compound `CC(CN(C)C)CN1c2ccccc2Sc2ccc(C#N)cc21` (stereo unspecified) [CAS_62865], the Ki in [1] is 12 nM; in [2], 35 nM; in assay [3] it was 3.8 nM; in assay [4], 1.5 nM; in assay [5], 5.3 nM; in assay [6] it was 13 nM. In addition, the Ki in [7] is 351 nM; in assay [8], over 10 µM; in assay [9] it was 12 nM; in [10] it was over 10 µM; in assay [11], 2.3 nM; in assay [12] it was over 10 µM. The Ki was 2940 nM in assay [13]; 32 nM in assay [14]; 22 nM in assay [15]; 75 nM in [16]; 42 nM in assay [17]; 5.8 nM in assay [18]. Also, the Ki in [19] turned out to be 9.3 nM; in assay [20] it was 1320 nM; in assay [21], 2.5 nM.
